Experimental data as given in patent US9334285B2, “Aldosterone synthase inhibitors” (Boehringer Ingelheim International GmbH, priority 2014, dated 2016).
Where two headings read alike, the source gives them in different places.

Legend:
[1] = biological target: T1, aldosterone synthase (CYP11B2) (Macaca fascicularis, UniProt A0A2K5UPL9); assay: Inhibition of aldosterone synthase, cynomolgus adrenal mitochondria, aldosterone quantified by mass spectrometry; assay type: biochemical, cynomolgus monkey; conditions: 2 μM corticosterone, 90 minutes at 37° C.
T1 construct: employ cynomolgus adrenal gland mitochondria as the source of aldosterone synthase (CYP11B2); from tissue; host or cells: cynomolgus monkey adrenal gland mitochondria
T1 sequence (A0A2K5UPL9 1-503): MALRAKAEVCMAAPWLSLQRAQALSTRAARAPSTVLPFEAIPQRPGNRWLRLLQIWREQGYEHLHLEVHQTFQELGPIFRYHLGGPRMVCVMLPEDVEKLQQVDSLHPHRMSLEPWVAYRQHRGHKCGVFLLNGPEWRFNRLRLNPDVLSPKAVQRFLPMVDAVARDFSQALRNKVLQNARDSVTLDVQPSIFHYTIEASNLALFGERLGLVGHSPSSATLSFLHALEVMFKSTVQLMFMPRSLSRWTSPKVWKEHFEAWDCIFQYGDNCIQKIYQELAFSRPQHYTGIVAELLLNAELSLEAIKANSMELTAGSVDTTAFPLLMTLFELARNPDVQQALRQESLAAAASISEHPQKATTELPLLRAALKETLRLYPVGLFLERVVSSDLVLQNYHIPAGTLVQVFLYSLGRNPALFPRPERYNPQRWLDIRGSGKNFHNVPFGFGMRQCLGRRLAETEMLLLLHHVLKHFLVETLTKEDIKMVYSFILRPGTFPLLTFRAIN
Procedure: The aldosterone synthase and cortisol synthase inhibition assays employ cynomolgus adrenal gland mitochondria as the source of aldosterone synthase (CYP11B2) and cortisol synthase (CYP11B1). […] One unit of CYP11B2 and CYP11B1 activity in these preparations is defined as the amount of enzyme that generates 1 pmol of product in one hour under the conditions described.
The compounds of the invention may be evaluated for aldosterone synthase inhibition by the following assay:
Assays are performed in 96-well format in a final volume of 60 microL/well, containing 100 mM potassium phosphate, pH 7.4, 1% (v/v) DMSO, and additionally, 2 μM of corticosterone and 50 units of CYP11B2 activity. Reactions are started by the addition of NADPH to 1 mM and allowed to proceed for 90 minutes at 37° C. Reactions are terminated by the addition of 60 μL of MeCN containing an internal standard for mass spectrometry. One hundred microliters are then transferred to a glass filter plate and centrifuged at 570×g for 5 minutes and the filtrate is collected. Reaction product aldosterone is quantified by mass spectrometry. To determine the assay blank value (0% activity), NADPH is omitted from some reactions.
(§1) Dose dependent inhibition is quantified by the inclusion of compound at various concentrations. Maximum activity (100%) is defined by reactions containing NADPH, but without compound.

CYP19A1 = biological target: T2, CYP19A1 (Homo sapiens, UniProt P11511); assay: Inhibition of CYP19A1 (Kragie et al.); assay type: biochemical; conditions: read-out: CYP19A1 IC50
T2 sequence (P11511 1-503): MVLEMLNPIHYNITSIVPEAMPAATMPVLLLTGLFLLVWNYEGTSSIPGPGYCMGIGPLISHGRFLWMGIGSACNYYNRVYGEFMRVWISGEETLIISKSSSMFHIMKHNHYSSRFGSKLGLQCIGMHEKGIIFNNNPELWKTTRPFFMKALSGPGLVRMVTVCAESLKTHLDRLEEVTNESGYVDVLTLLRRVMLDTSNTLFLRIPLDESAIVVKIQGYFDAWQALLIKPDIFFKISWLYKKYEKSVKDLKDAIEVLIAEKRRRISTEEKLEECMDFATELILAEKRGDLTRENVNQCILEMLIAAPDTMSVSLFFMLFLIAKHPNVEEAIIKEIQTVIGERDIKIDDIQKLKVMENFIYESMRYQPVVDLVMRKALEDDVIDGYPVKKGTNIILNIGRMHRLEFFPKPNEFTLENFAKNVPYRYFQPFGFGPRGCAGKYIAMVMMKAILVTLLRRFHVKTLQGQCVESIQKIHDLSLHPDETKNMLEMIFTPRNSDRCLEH

rhCYP17A1 = biological target: T3, rhCYP17A1 (Homo sapiens, UniProt P05093); assay: Inhibition of CYP17A1, progesterone to 17-α-hydroxyprogesterone, mass spectrometry; assay type: biochemical; conditions: rhCYP17A1, 150 nM progesterone, 15 minutes at 37° C.; read-out: CYP17A1 IC50
T3 construct: purchased Cypex
T3 sequence (P05093 1-508): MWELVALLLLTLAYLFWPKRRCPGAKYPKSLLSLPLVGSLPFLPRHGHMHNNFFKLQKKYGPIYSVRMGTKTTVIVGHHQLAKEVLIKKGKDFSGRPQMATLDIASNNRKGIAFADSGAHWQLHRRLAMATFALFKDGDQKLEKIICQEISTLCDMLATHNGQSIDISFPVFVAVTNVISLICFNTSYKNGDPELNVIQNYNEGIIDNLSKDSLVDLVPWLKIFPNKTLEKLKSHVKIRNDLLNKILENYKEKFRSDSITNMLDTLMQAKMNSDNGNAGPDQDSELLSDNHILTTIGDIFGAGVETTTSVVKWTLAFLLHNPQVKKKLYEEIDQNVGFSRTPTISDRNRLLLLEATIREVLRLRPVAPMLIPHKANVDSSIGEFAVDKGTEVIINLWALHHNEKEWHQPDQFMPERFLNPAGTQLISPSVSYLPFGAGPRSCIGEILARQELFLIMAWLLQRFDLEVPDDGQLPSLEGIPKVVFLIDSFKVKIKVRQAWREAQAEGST
Procedure: Compounds of the invention may also be evaluated for inhibition of CYP17A1 via the following assay:
Reactions are started by the addition of NADPH to 1 mM and allowed to proceed for 15 minutes at 37° C. Reactions are terminated by the addition of 40 μL of MeCN containing an internal standard for mass spectrometry. The plates are centrifuged at 3000 rpm for 5 min and the reaction product 17-α-hydroxyprogesterone is quantified by mass spectrometry. To determine the assay blank value (0% activity), NADPH is omitted from some reactions.
as §1

[2] = biological target: cortisol synthase (CYP11B1) (Macaca fascicularis, UniProt A0A2K5ULY1); assay: Inhibition of cortisol synthesis, cynomolgus adrenal mitochondria, 11-deoxycortisol as substrate; assay type: biochemical, cynomolgus monkey; conditions: 150 units of CYP11B1, 11-deoxycortisol as substrate
Procedure: The aldosterone synthase and cortisol synthase inhibition assays employ cynomolgus adrenal gland mitochondria as the source of aldosterone synthase (CYP11B2) and cortisol synthase (CYP11B1). Mitochondria are prepared from frozen cynomolgus monkey adrenal glands according to Method A described in by J. D. McGarry et al. (Biochem. J., 1983, 214, 21-28), with a final resuspension in the AT buffer described in R. Yamaguchi et al. (Cell Death and Differentiation, 2007, 14, 616-624), frozen as aliquots in liquid nitrogen and stored at −80° C. until use. One unit of CYP11B2 and CYP11B1 activity in these preparations is defined as the amount of enzyme that generates 1 pmol of product in one hour under the conditions described.
Assays are performed as for aldosterone synthase except for the use of 150 units of CYP11B1, 11-deoxycortisol as substrate and cortisol measured as product.

[3] = cynomolgus adrenal mitochondria, read-out: Cortisol Inhibition IC50
[4] = Cortisol Inhibition IC50, cynomolgus adrenal mitochondria

IC50 [1] | IC50 (CYP19A1) | IC50 (rhCYP17A1) | IC50 [2, 3] | Structure (SMILES) | IC50 [2, 4]
32 nM | > 20 µM | > 20 µM | 2.4 µM | CC1(C)Cc2ncn(-c3ccc(Cl)cc3)c2C(=O)O1 [Compound 9, 3-(4-chlorophenyl)-6,6-dimethyl-3H,4H,6H,7H-pyrano[3,4-d]imidazol-4-one] | –
23 nM | > 20 µM | > 20 µM | 3.6 µM | Cc1cc(C#N)ccc1-n1cnc2c1C(=O)OC(C)(CO)C2 (single isomer, unassigned) [Compound 31A, 4-[6-(hydroxymethyl)-6-methyl-4-oxo-3H,4H,6H,7H-pyrano[3,4-d]imidazol-3-yl]-3-methylbenzonitrile] | –
210 nM | > 20 µM | > 20 µM | 24 µM | Cc1cc(C#N)ccc1-n1cnc2c1C(=O)OC(C)(CO)C2 (single isomer, unassigned) [Compound 31B, 4-[6-(hydroxymethyl)-6-methyl-4-oxo-3H,4H,6H,7H-pyrano[3,4-d]imidazol-3-yl]-3-methylbenzonitrile] | –
35 nM | > 20 µM | > 20 µM | 8.7 µM | CC1(C)Cc2ncn(-c3ccc(C#N)cc3)c2C(=O)O1 [Compound 3, 4-{6,6-dimethyl-4-oxo-3H,4H,6H,7H-pyrano[3,4-d]imidazol-3-yl}benzonitrile] | –
76 nM | > 20 µM | > 20 µM | > 30 µM | CC1(CO)Cc2ncn(-c3ccc4c(c3)CCO4)c2C(=O)O1 (single isomer, unassigned) [Compound 42B, 3-(2,3-Dihydro-benzofuran-5-yl)-6-hydroxymethyl-6-methyl-6,7-dihydro-3H-pyrano[3,4-d]imidazol-4-one] | –
110 nM | > 20 µM | > 20 µM | 40 µM | CN1C(=O)CCc2cc(-n3cnc4c3C(=O)OC(C)(C)C4)ccc21 [Compound 5, 6-{6,6-dimethyl-4-oxo-3H,4H,6H,7H-pyrano[3,4-d]imidazol-3-yl}-1-methyl-1,2,3,4-tetrahydroquinolin-2-one] | –
160 nM | > 20 µM | > 20 µM | 35 µM | CC1Cc2ncn(-c3ccc(C#N)cc3)c2C(=O)O1 (single isomer, unassigned) [Compound 16B, 4[6-methyl-4-oxo-3H,4H,6H,7H-pyrano[3,4-d]imidazol-3-yl]benzonitrile] | –
31 nM | > 20 µM | > 20 µM | 5.2 µM | CC1(CO)Cc2ncn(-c3ccc(Cl)c(Cl)c3)c2C(=O)O1 (single isomer, unassigned) [Compound 30B, 3-(3,4-dichlorophenyl)-6-(hydroxymethyl)-6-methyl-3H,4H,6H,7H-pyrano[3,4-d]imidazol-4-one] | –
17 nM | > 20 µM | > 20 µM | 4.1 µM | CC1(C)Cc2ncn(-c3ccc(C#N)cc3Cl)c2C(=O)O1 [Compound 18, 3-chloro-4-{6,6-dimethyl-4-oxo-3H,4H,6H,7H-pyrano[3,4-d]imidazol-3-yl}benzonitrile] | –
35 nM | > 20 µM | > 20 µM | 5.3 µM | CC1(C)Cc2ncn(-c3cccc(Cl)c3F)c2C(=O)O1 [Compound 8, 3-(3-chloro-2-fluorophenyl)-6,6-dimethyl-3H,4H,6H,7H-pyrano[3,4-d]imidazol-4-one] | –
75 nM | > 20 µM | > 20 µM | 16 µM | CC1(C)Cc2ncn([C@H]3CC[C@H](C#N)CC3)c2C(=O)O1 [Compound 28, trans-4-(6,6-Dimethyl-4-oxo-6,7-dihydro-4H-pyrano[3,4-d]imidazol-3-yl)-cyclohexanecarbonitrile] | –

Structure (SMILES) | IC50 [1] | IC50 (CYP19A1) | IC50 (rhCYP17A1) | IC50 [2, 3] | IC50 [2, 4]
Cc1cc(-n2cnc3c2C(=O)OC(C)(CO)C3)ccc1C#N (single isomer, unassigned) [Compound 39A, 4-[6-(hydroxymethyl)-6-methyl-4-oxo-3H,4H,6H,7H-pyrano[3,4-d]imidazol-3-yl]-2-methylbenzonitrile] | 11 nM | > 20 µM | > 20 µM | – | 1.4 µM
Cc1cc(C#N)ccc1-n1cnc2c1C(=O)OC(C)(C)C2 [Compound 13, 4-{6,6-dimethyl-4-oxo-3H,4H,6H,7H-pyrano[3,4-d]imidazol-3-yl}-3-methylbenzonitrile] | 6.3 nM | > 20 µM | > 20 µM | – | 2.2 µM
CC1(C)Cc2ncn(-c3ccc(C#N)c(Cl)c3)c2C(=O)O1 [Compound 6, 2-chloro-4-{6,6-dimethyl-4-oxo-3H,4H,6H,7H-pyrano[3,4-d]imidazol-3-yl}benzonitrile] | 5.3 nM | > 20 µM | > 20 µM | – | 2.5 µM
